Results on two molecules are retold here after patent US20180092866A1, “SUBSTITUTED N-([1,1'-BIPHENYL]-3-YL)-[1,1'-BIPHENYL]-3-CARBOXAMIDE ANALOGS AS INHIBITORS FOR BETA-CATENIN/B-CELL LYMPHOMA 9 INTERACTIONS” (University of Utah Research Foundation, priority 2015, published 2018).

In assay [1] the target is T1, β-catenin/BCL9 protein-protein interactions (Homo sapiens, UniProt P35222).
T1 construct: C-terminally His6-tagged wild-type or mutant β-catenin (residues 138-686) proteins; made in house; host or cells: E. coli BL21 DE3
T1 sequence (P35222 138-686): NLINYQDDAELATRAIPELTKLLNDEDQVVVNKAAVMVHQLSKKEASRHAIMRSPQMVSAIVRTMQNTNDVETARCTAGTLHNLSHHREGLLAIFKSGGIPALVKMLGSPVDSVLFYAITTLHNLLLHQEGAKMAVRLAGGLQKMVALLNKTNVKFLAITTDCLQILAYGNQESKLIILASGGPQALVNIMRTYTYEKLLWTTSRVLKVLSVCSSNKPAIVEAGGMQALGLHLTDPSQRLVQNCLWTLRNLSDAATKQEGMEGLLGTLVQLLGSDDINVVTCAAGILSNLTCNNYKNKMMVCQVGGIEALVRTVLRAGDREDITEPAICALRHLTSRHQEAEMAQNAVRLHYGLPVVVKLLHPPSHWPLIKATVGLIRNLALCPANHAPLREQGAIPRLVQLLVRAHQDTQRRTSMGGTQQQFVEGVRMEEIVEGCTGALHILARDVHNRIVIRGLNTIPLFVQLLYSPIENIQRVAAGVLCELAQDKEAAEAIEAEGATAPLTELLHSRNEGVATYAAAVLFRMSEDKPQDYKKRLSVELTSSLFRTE
The experiment in a line: AlphaScreen competitive inhibition assay, wild-type β-catenin/BCL9. It counts as binding. The method, then: The purity of the wild-type and mutant β-catenin proteins was all greater than 95% as determined by the SDS-PAGE gel analysis. Both the wild-type and mutant β-catenin proteins are stable under the testing conditions. Native non-denaturing gel electrophoresis was performed to confirm the homogeneity of the purified proteins. Experiments were performed in white opaque 384-well plates from PerkinElmer, and the samples were read on a Synergy 2 plate reader (Biotek) with a sensitivity setting of 200 using AlphaScreen protocol with excitation at 680 nm and emission at 570 nm. All dilutions were made in 1×assay buffer containing 25 mM HEPES (pH=7.0), 100 mM NaCl, 0.01% Triton X-100, and 0.1% BSA. In the AlphaScreen competitive inhibition assay, 40 nM of C-terminally His6-tagged wild-type or mutant β-catenin (residues 138-686) proteins was incubated with 5 nM of N-terminal biotinylated human BCL9 26-mer (residues 350-375) for 30 min at 4° C., and then different concentrations of the tested inhibitors in the assay buffer were added to make a final volume of 20 μL. The mixture was incubated at 4° C. for 2 h. The donor and acceptor beads were added to a final concentration of 10 μg/mL in 25 μL of assay buffer. The mixture was incubated at 4° C. for 1 h. The IC50 value was determined by nonlinear least-square analysis of GraphPad Prism 5.0. […] The Ki values were derived from the IC50 values by a reported method (Nikolovska-Coleska et al. (2004) Anal. Biochem. […]: 261-273). Experiments were performed in triplicate and carried out in the presence of 1% DMSO.
A general note: In Alpha technology, singlet oxygen from a donor bead excites a nearby acceptor bead.

The target of assay [2] is T2, β-catenin/E-cadherin PPIs (Homo sapiens, UniProt P35222).
T2 construct: β-Catenin or its mutants (residues 138-686) was cloned into a pET-28b vector; made in house; host or cells: E. coli BL21 DE3
T2 sequence (P35222 138-686): T1 sequence (P35222 138-686)
The experiment in a line: AlphaScreen selectivity assay, β-catenin/BCL9 versus β-catenin/E-cadherin. It counts as binding. The text has this:
Human BCL9 (residues 350-375), N-terminally biotinylated human BCL9 (residues 350-375), N-terminally fluorescein-labeled human BCL9 (residues 350-375), and N-terminally biotinylated human E-cadherin (residues 824-877) were synthesized by InnoPep Inc. (San Diego, Calif., www.innopep.com). All synthesized peptides were purified by HPLC with purity >95%. The structures were validated by LC/MS. The sequences are shown in Table 2 (Ahx, 6-aminohexanoic acid).
The purity of the wild-type and mutant β-catenin proteins was all greater than 95% as determined by the SDS-PAGE gel analysis. Both the wild-type and mutant β-catenin proteins are stable under the testing conditions. Native non-denaturing gel electrophoresis was performed to confirm the homogeneity of the purified proteins. Experiments were performed in white opaque 384-well plates from PerkinElmer, and the samples were read on a Synergy 2 plate reader (Biotek) with a sensitivity setting of 200 using AlphaScreen protocol with excitation at 680 nm and emission at 570 nm. All dilutions were made in 1×assay buffer containing 25 mM HEPES (pH=7.0), 100 mM NaCl, 0.01% Triton X-100, and 0.1% BSA. […] The IC50 value was determined by nonlinear least-square analysis of GraphPad Prism 5.0. […]

Assay [3] concerns the target T3, wild-type human β-catenin (residues 138-686) (Homo sapiens, UniProt P35222).
T3 construct: His6 (C); made in house; host or cells: E. coli BL21 DE3
T3 sequence (P35222 138-686): T1 sequence (P35222 138-686)
The experiment in a line: Isothermal titration calorimetry, wild-type β-catenin. The format is binding. To be noted: ITC, 28° C. The method, then:
(§1) ITC measurements were performed at 28° C. using a VP-ITC (Microcal, GE Healthcare Life Sciences). […] The homogeneity of the purified proteins were examined by native gel electrophoresis. Each titration experiment was initiated by a 2 μL injection, and followed by 30-35 times injections with an 8 μL volume each. Blank titrations, which were carried out by injecting the compound into the buffer, were subtracted from each data set. The association constant KA, enthalpy change (ΔH), and stoichiometry N were obtained from fitting the data using the Origin software package. The dissociation constant Kd, the free energy change ΔG, and the entropy change ΔS were obtained from the basic thermodynamic equations, Kd=KA^−1, ΔG=−RTlnKA, and ΔG=ΔH−TΔS.
On the technique in general: Isothermal titration calorimetry measures the heat released or taken up as one component is titrated into another.

In assay [4] the target is T4, β-catenin L159S mutant (residues 138-686) (Homo sapiens, UniProt P35222, L159S).
T4 construct: His6 (C); made in house; host or cells: E. coli BL21 DE3
T4 sequence (P35222 138-686 L159S): T1 sequence (P35222 138-686) with L22S
Description: Isothermal titration calorimetry, β-catenin L159S. The format is binding. To be noted: ITC.
From the text: (§2) Mutants β-catenin D145A, E155A, L156S, L159S, D145A/E155A, L156S/L159S, and L156S/L178S were generated using the overlapping PCR method. Template for the mutagenesis reactions was wide type full-length β-catenin in pET-28b. KOD hot start DNA polymerase (Novagen) was used through this experiment. Mutants were confirmed by direct sequencing (Core facility, University of Utah). Following the confirmation of the sequence, mutant β-catenin were cloned into a pET-28b vector and transformed into E. coli BL21 DE3.
as §1

Assay [5] addresses T5, β-catenin L156S/L178S mutant (residues 138-686) (Homo sapiens, UniProt P35222, L156S/L178S).
T5 construct: His6 (C); made in house; host or cells: E. coli BL21 DE3
T5 sequence (P35222 138-686 L156S/L178S): T1 sequence (P35222 138-686) with L19S, L41S
Description: Isothermal titration calorimetry, β-catenin L156S/L178S. The note with it: ITC. The format is binding.
From the text: as §2, §1

Assay [6] concerns AXIN2, LGR5, LEF1, and cyclin D1 transcription in MDA-MB-231 cells. Description: Quantitative real-time PCR, MDA-MB-231 cells. It counts as cell-based, human. The note with it: 2 and 4 μM. The protocol:
SW480 and MDA-MB-231 cells at 1×10^6/mL were treated with different concentrations of 21 for 24 h. Total RNAs were extracted with TRIzol ([…], Life Technologies), and the cDNA was synthesized with the superscript III first-strand kit (18080-051, Invitrogen). Quantitative PCR (qPCR) was performed using the iQ™ SYBR green supermix kit (170-8880, BIO-RAD) on an iQ^5 multicolor real-time PCR reaction system (BIO-RAD). The threshold cycle (CT) values were normalized to that of internal reference GAPDH. The primer pairs for human GAPDH were forward: 5′-[…]-3′, and reverse: 5′-[…]-3′, for human AXIN2 forward: 5′-[…]-3′ and reverse: 5′-[…]-3′, for human LGR5 forward: 5′-[…]-3′ and reverse: 5′-[…]-3′, for human LEF1 forward: 5′-[…]-3′ and reverse: 5′-[…] […]-3′, and for human cyclin D1 forward: 5′-[…]-3′, and revers: 5′-[…]-3′. Experiments were performed in triplicate.
In general terms: Quantitative PCR measures a nucleic acid by following its amplification.

Each structure is given as a SMILES string. Substitutions are numbered along the chain they refer to.

`O=C(NCCCC(=O)N1CCNCC1)c1ccc(-c2cc(C(=O)Nc3ccc(O[C@H]4CCNC4)c(-c4ccc(F)cc4)c3)ccc2O[C@H]2CCNC2)cc1` [Compound 29, 4-(4-(5′-((4′-fluoro-6-((S)-pyrrolidin-1-ium-3-yloxy)-[1,1′-biphenyl]-3-yl)carbamoyl)-2′-((S)-pyrrolidin-1-ium-3-yloxy)-[1,1′-biphenyl]-4-ylcarboxamido)butanoyl) piperazin-1-ium]: the “relative inhibitory potency for β-catenin/BCL9 PPIs (in words)” value in assay [1] (AlphaScreen assay, comparison with named compound) is given as “comparable inhibitory potency for β-catenin/BCL9 PPIs as 21”. Besides, in assay [1] (wild-type β-catenin (residues 138-686)/biotinylated BCL9 26-mer, Ki derived from IC50, mean ± SD), the inhibition constant Ki stood at 2100 ± 432 nM. Moreover, the “selectivity for β-catenin/BCL9 over β-catenin/E-cadherin PPIs (in words)” value in assay [2] is given as “much higher selectivity”.

Regarding `O=C(Nc1ccc(O[C@H]2CCNC2)c(-c2ccc(F)cc2)c1)c1ccc(O[C@H]2CCNC2)c(-c2ccc(F)c(F)c2)c1` [Compound 21, (S)-3-((3′,4′-difluoro-5-((4′-fluoro-6-((S)-pyrrolidin-1-ium-3-yloxy)-[1,1′-biphenyl]-3-yl)carbamoyl)-[1,1′-biphenyl]-2-yl)oxy) pyrrolidin-1-ium chloride], the Kd came to 333 ± 6 nM in assay [3], 924 ± 33 nM in assay [4] and 1590 ± 45 nM in assay [5]. Besides, in assay [6], the “inhibition of mRNA expression” value is “More than 50%”.

A word on the Ki: it is the dissociation constant of the complex between target and ligand, obtained from inhibition or displacement. The Kd is a measure of binding affinity in units of concentration.
